# Results from US20240101570A1 (AMGEN INC., priority 2020, published 2024).
# pIC50: −log10 of the molar value. Read-outs that look alike come from different tables or passages of the source.
# Key:
# HCT116 MTAP null cells = assay: HCT116 MTAP null cell proliferation / viability (CellTiter-Glo, 6 days); format: cell-based; details: for pIC50: HCT116 MTAP null cells, 6 days, CellTiter-Glo, read-out: HCT-116 MTAP null IC50; for potency of enantiomer relative to the other enantiomer, measured by IC50 in HCT116 MTAP null cell viability assay: comparison of the two SFC-separated enantiomers
# How it was run: (§1)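 Viability read by CellTiter-Glo after 6-day compound exposure of MTAP-null and wild-type HCT116 cells grown in RPMI 1640 with 10% FBS. Dosing used 1:3 steps from 1 or 10 μM (8-9 points) or 1:2 steps from 10 or 50 μM (22 points); IC50 taken where fitted curve crosses 50% of control.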
# HCT116 WT cells = assay: HCT116 WT cell proliferation / viability (CellTiter-Glo, 6 days); format: cell-based; details: HCT116 WT cells, 6 days, CellTiter-Glo, read-out: HCT-116 WT IC50
# How it was run: as §1
Structure (SMILES),"pIC50 (HCT116 MTAP null cells; HCT116-MTAP null, 144 h)","pIC50 (HCT116 WT cells; Homo sapiens, HCT-116, 144 h)","potency of enantiomer relative to the other enantiomer, measured by IC50 in HCT116 MTAP null cell viability assay (HCT116 MTAP null cells)",pIC50 (HCT116 MTAP null cells),pIC50 (HCT116 WT cells)
"CCN(C(=O)c1cc2c3c(c(N)nc2cc1F)COC3)C(C)c1ccc(C(F)(F)F)cn1 (racemic) [Example 719, 4-amino-N-ethyl-7-fluoro-N-((1R)-1-(5-(trifluoromethyl)-2-pyridinyl)ethyl)-1,3-dihydrofuro[3,4-c]quinoline-8-carboxamide and 4-amino-N-ethyl-7-fluoro-N-((1S)-1-(5-(trifluoromethyl)-2-pyridinyl)ethyl)-1,3-dihydrofuro[3,4-c]quinoline-8-carboxamide]",5.99,4.66,–,–,–
"CCN(C(=O)c1cc2c3c(c(N)nc2cc1Cl)COC3)C(C)c1ccc(Cl)nc1 (racemic) [Example 737, 4-amino-7-chloro-N-((1R)-1-(6-chloro-3-pyridinyl)ethyl)-N-ethyl-1,3-dihydrofuro[3,4-c]quinoline-8-carboxamide and 4-amino-7-chloro-N-((1S)-1-(6-chloro-3-pyridinyl)ethyl)-N-ethyl-1,3-dihydrofuro[3,4-c]quinoline-8-carboxamide]",7.23,5.62,–,–,–
"CN(C(=O)c1cc2c3c(c(N)nc2cn1)COC3)C(c1ccc(C(F)(F)F)cn1)C1CC1 (racemic) [Example 764, 4-amino-N-((R)-cyclopropyl(5-(trifluoromethyl)-2-pyridinyl)methyl)-N-methyl-1,3-dihydrofuro[3,4-c][1,7]naphthyridine-8-carboxamide and 4-amino-N-((S)-cyclopropyl(5-(trifluoromethyl)-2-pyridinyl)methyl)-N-methyl-1,3-dihydrofuro[3,4-c][1,7]naphthyridine-8-carboxamide]",5.20,< 4.30,–,–,–
"C[C@H](CF)N(Cc1ccc(C#N)cn1)C(=O)c1ccc2nc(N)c3c(c2c1)COC3 (single isomer, unassigned) [Example 577]",5.49,< 5.00,more potent,–,–
"CC(C)CN(Cc1ccc(C(F)(F)F)cn1)C(=O)c1ccc2nc(N)c3c(c2c1)CO[C@@H]3CO (single isomer, unassigned) [Example 580]",6.49,4.97,–,–,–
"N#CC[C@H](C1CC1)N(Cc1ccc(C#N)cn1)C(=O)c1ccc2nc(N)c3c(c2c1)COC3 (single isomer, unassigned) [Example 581]",6.09,4.99,–,–,–
"CO[C@@H]1CCOC[C@H]1N(Cc1ccc(C#N)c(C)n1)C(=O)c1ccc2nc(N)c3c(c2c1)COC3 (single isomer, unassigned) [Example 583]",–,–,–,6.76,5.32
"CO[C@@H]1CCOC[C@H]1N(Cc1ccc(C(F)(F)F)cn1)C(=O)c1ccc2nc(N)c3c(c2c1)COC3 (single isomer, unassigned) [Example 586]",7.92,6.82,–,–,–
"C[C@H](c1ccc(C(F)(F)F)cn1)N(C(=O)c1cc2c3c(c(N)nc2cn1)[C@@H](C)OC3)C1CC1 (single isomer, unassigned) [Example 589]",7.54,6.09,–,–,–
"C[C@@H]1OCc2c1c(N)nc1cnc(C(=O)N(C3CC3)[C@H](C)c3ccc(C(F)(F)F)cn3)cc21 (single isomer, unassigned) [Example 590]",5.65,< 4.30,–,–,–

# Now from value to compound:
"pIC50 (HCT116 MTAP null cells; HCT116-MTAP null, 144 h)","pIC50 (HCT116 WT cells; Homo sapiens, HCT-116, 144 h)","potency of enantiomer relative to the other enantiomer, measured by IC50 in HCT116 MTAP null cell viability assay (HCT116 MTAP null cells)",pIC50 (HCT116 MTAP null cells),pIC50 (HCT116 WT cells),Structure (SMILES)
6.07,< 4.30,–,–,–,"CC(c1ncc(F)cn1)N(CCOC(F)(F)F)C(=O)c1cc2c3c(c(N)nc2cc1F)COC3 (racemic) [Example 725, 4-amino-7-fluoro-N-((1R)-1-(5-fluoro-2-pyrimidinyl)ethyl)-N-(2-(trifluoromethoxy)ethyl)-1,3-dihydrofuro[3,4-c]quinoline-8-carboxamide and 4-amino-7-fluoro-N-((1S)-1-(5-fluoro-2-pyrimidinyl)ethyl)-N-(2-(trifluoromethoxy)ethyl)-1,3-dihydrofuro[3,4-c]quinoline-8-carboxamide]"
6.55,4.91,–,–,–,"CCN(C(=O)c1ccc2nc(N)c3c(c2c1)COC3)C(C)c1ccc(Cl)nc1 (racemic) [Example 727, 4-amino-N-((1R)-1-(6-chloro-3-pyridinyl)ethyl)-N-ethyl-1,3-dihydrofuro[3,4-c]quinoline-8-carboxamide and 4-amino-N-((1S)-1-(6-chloro-3-pyridinyl)ethyl)-N-ethyl-1,3-dihydrofuro[3,4-c]quinoline-8-carboxamide]"
7.15,5.65,–,–,–,"CCN(C(=O)c1cc2c3c(c(N)nc2cc1F)COC3)C(C)c1ccc(Cl)nc1 (racemic) [Example 739, 4-amino-N-((1R)-1-(6-chloro-3-pyridinyl)ethyl)-N-ethyl-7-fluoro-1,3-dihydrofuro[3,4-c]quinoline-8-carboxamide and 4-amino-N-((1S)-1-(6-chloro-3-pyridinyl)ethyl)-N-ethyl-7-fluoro-1,3-dihydrofuro[3,4-c]quinoline-8-carboxamide]"
6.43,4.74,–,–,–,"CC(c1ccc(F)cn1)N(C)C(=O)c1cc2c3c(c(N)nc2cc1Cl)COC3 (racemic) [Example 772, 4-amino-7-chloro-N-((1R)-1-(5-fluoro-2-pyridinyl)ethyl)-N-methyl-1,3-dihydrofuro[3,4-c]quinoline-8-carboxamide and 4-amino-7-chloro-N-((1S)-1-(5-fluoro-2-pyridinyl)ethyl)-N-methyl-1,3-dihydrofuro[3,4-c]quinoline-8-carboxamide]"
7.66,5.52,–,–,–,"CC1OCc2c1c(N)nc1ccc(C(=O)N(Cc3ccc(C(F)(F)F)cn3)[C@H]3C[C@@H]3C(F)(F)F)cc21 (mixture of isomers) [Example 910, 4-amino-3-methyl-N-((1R,2R)-2-(trifluoromethyl)cyclopropyl)-N-((5-(trifluoromethyl)-2-pyridinyl)methyl)-1,3-dihydrofuro[3,4-c]quinoline-8-carboxamide and 4-amino-3-methyl-N-((1S,2S)-2-(trifluoromethyl)cyclopropyl)-N-((5-(trifluoromethyl)-2-pyridinyl)methyl)-1,3-dihydrofuro[3,4-c]quinoline-8-carboxamide]"
6.47,5.31,less potent,–,–,"C[C@@H](CF)N(Cc1ccc(C#N)cn1)C(=O)c1ccc2nc(N)c3c(c2c1)COC3 (single isomer, unassigned) [Example 578]"
6.46,5.25,–,–,–,"CC(C)CN(Cc1ccc(C(F)(F)F)cn1)C(=O)c1ccc2nc(N)c3c(c2c1)CO[C@H]3CO (single isomer, unassigned) [Example 579]"
7.44,6.25,–,–,–,"N#CC[C@@H](C1CC1)N(Cc1ccc(C#N)cn1)C(=O)c1ccc2nc(N)c3c(c2c1)COC3 (single isomer, unassigned) [Example 582]"
7.85,6.79,–,–,–,"CO[C@@H]1COCC[C@H]1N(Cc1ccc(C(F)(F)F)cn1)C(=O)c1ccc2nc(N)c3c(c2c1)COC3 (single isomer, unassigned) [Example 584]"
7.12,5.77,–,–,–,"CO[C@H]1CCOC[C@@H]1N(Cc1ccc(C(F)(F)F)cn1)C(=O)c1ccc2nc(N)c3c(c2c1)COC3 (single isomer, unassigned) [Example 587]"
–,–,–,7.10,5.71,"CO[C@@H]1CCOC[C@H]1N(Cc1ccc(C#N)c(C)n1)C(=O)c1ccc2nc(N)c3c(c2c1)COC3 (single isomer, unassigned) [Example 588]"
6.25,4.49,–,–,–,"Cc1cc2nc(N)c3cnn(C)c3c2cc1C(=O)N(C)[C@@H](C)c1ccc(F)cn1 (single isomer, unassigned) [Example 591]"
